Earlier results as cited in patent US11478494B2, “Methods and substances for prevention and treatment of neurodegenerative diseases” (Locus IP Company, LLC, priority 2017, dated 2022).
*1 amine or outer side, *2 acyl side, *3 side chain or, on linkers, in order; H or OH if unused. Where a SMILES comes first, the peptide text is derived from it. Bridges are numbered along the chain shown (N, C = ends). [ ]: non-standard residue; d: D form. X1 = CC(C)CCCCCCCCC[C@H](CC(=O)[*:1])O[*:2]

Tests used:
[1] = surfactin administration
[2] = oral administration

| Molecule | concentration without any significant toxic effects [1] [µM] | oral dose administered without toxicity [2] |
| --- | --- | --- |
| CC(C)CCCCCCCCC[C@@H]1CC(=O)N[C@@H](CCC(=O)O)C(=O)N[C@@H](CC(C)C)C(=O)N[C@H](CC(C)C)C(=O)N[C@@H](C(C)C)C(=O)N[C@@H](CC(=O)O)C(=O)N[C@H](CC(C)C)C(=O)N[C@@H](CC(C)C)C(=O)O1 [surfactin] (EL[dL]VD[dL]L; linker N-C via X1) | ≤ 25 |  |
| sophorolipid [SLP] |  | ≤ 5 grams/kg of body weight |
